According to PubChem BioAssay AID179 (DTP/NCI, 2004):
Several values for one entry are separate records, joined by “and”; a condition that tells them apart may be missing. Equal values may be shown once. Activity calls are given as the source filed them.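 The calls were made as follows: active = compounds giving half or more protection of infected cells from virus-caused growth loss, again on retest; inactive = the rest.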

Tested on: CEM cells HIV-1 protection, formazan growth assay
Experiment: NCI AIDS Antiviral Assay
Details: for IC50: measured here: growth of uninfected CEM cells
Outline: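 Soluble formazan readout of cell growth; CEM cells ± HIV-1; 5 drug concs. ≥50% protection → retest; ≥50% again = moderately active; reproducible 100% = confirmed active.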

| Structure (SMILES) | EC50 | IC50 | outcome |
| --- | --- | --- | --- |
| CCOC(=O)/C(=C/c1ccncc1)C(=O)c1ccccc1 | > 129 µM | > 129 µM |  |
| COc1cc(Nc2cnc3ccc(N)cc3n2)cc(OC)c1OC | > 550 µM |  |  |
| COc1ccc2c(c1)nc1n2C(c2c(F)cccc2Cl)SC1 (stereo not given) | > 200 µM | 4.17 µM |  |
| N#CC(C#N)=CN1C(=O)CNC1=S | > 200 µM | > 200 µM |  |
| CC12C(=O)OCC1C1CCC2C1 (stereo not given) | > 537 µM | > 537 µM |  |
| CCOP(=O)(OCC)OCCOCCOP(=O)(OCC)OCC | > 200 µM | > 200 µM |  |
| O=C1C2CCCCC2C(=O)N1n1c(-c2ccccc2)n[nH]c1=O (stereo not given) | > 200 µM | > 200 µM |  |
| O=C(c1nc2ccc([N+](=O)[O-])cc2[nH]c1=O)C(O)c1ccc2c(c1)OCO2 (stereo not given) | > 676 µM | 245 µM |  |
| O=S(=O)(F)c1ccc(C[P+](c2ccccc2)(c2ccccc2)c2ccccc2)cc1 | > 200 µM | > 100 µM |  |
| CCOC(=O)O/C(=C\c1ccc(OC)cc1)c1c(OC(=O)OCC)n(C(=O)OCC)c2ccccc12 | > 200 µM | 6.61 µM |  |
| CCC1c2cc3n(c(=O)c2COC1O)Cc1c-3nc2ccccc2c1Cl (stereo not given) | > 10 µM | 6.31 µM |  |
| C[C@@]12C[C@@H](c3ccccc3O1)N1CCSC1=N2 |  |  | inactive |
| Cc1cccc(C)c1NC(=O)C(=O)Cc1nc2ccccc2s1 |  |  | inactive |
| O=c1[nH]c2c(c(=O)[nH]1)SC(c1ccccc1)C2 (stereo not given) | > 200 µM | > 200 µM |  |
| O=C(O)CC1OC(=O)C(Br)=C1O (stereo not given) | > 1050 µM | > 1050 µM |  |
| CC1(C)OC(=O)C(=Cc2ccccc2Cl)C(=O)O1 | > 490 µM | 2.45 µM |  |
| COC(=O)C1=COC2OC3C(C(C)O)C(=O)OC34C=CC1C24 (stereo not given) | > 589 µM | 63.1 µM |  |
| O=C1c2ccccc2C(=O)c2sc(Nc3ccccc3Cl)nc21 | > 7.94 µM | > 7.94 µM |  |
| NC(CSCCCO)C(=O)O (stereo not given) |  |  | inactive |
| Cc1cc(=O)n2nc(CN3CCCCC3)sc2n1 | > 200 µM | 174 µM |  |
| CCOC(=O)C(/C=N/C(=S)Nc1c(C)cccc1C)=C(/O)c1ccccc1 | > 200 µM | > 200 µM |  |
| O=C(O)C12C3CCC(C3)C1(C(=O)O)C1CCC2C1 (stereo not given) | > 1000 µM | > 1000 µM |  |
| Cc1cn([C@H]2CN(O)C[C@@H](CO)O2)c(=O)[nH]c1=O | > 200 µM | > 200 µM |  |

| Structure (SMILES) | EC50 | IC50 | outcome |
| --- | --- | --- | --- |
| COc1ccc(/C(=N/O)C(c2ccc(OC)cc2)C2C(=O)Oc3ccccc32)cc1 (stereo not given) | > 17.8 µM | > 17.8 µM |  |
| Brc1ccc(C[N+]23CCN(CC2)CC3)cc1 | > 692 µM | > 692 µM |  |
| O=C(Nc1cc2c(oc1=O)CCCCC2)c1cnccn1 | > 100 µM | > 100 µM |  |
| OC(C1CO1)C(O)C1CO1 (stereo not given) | > 427 µM | 0.891 µM |  |
| Nc1c(Cl)ncnc1Nc1ccc(Cc2ccc(Nc3ncnc(Cl)c3N)cc2)cc1 | > 79.4 µM | > 79.4 µM |  |
| O=C(O)c1csc(C(=O)O)c1 | 162 µM | 759 µM |  |
| CCOC(=O)NC(=O)c1cn(CCSCCOC(=O)NCCCCCCNC(=O)OCCSCCn2cc(C(=O)NC(=O)OCC)c(=O)n(C)c2=O)c(=O)n(C)c1=O | > 8.32 µM | > 8.32 µM |  |
| COc1cc2c(cc1OC)-c1cc3ccccc3c(=O)n1CCC2 | > 20 µM | 2.82 µM |  |
| C=C1C(=O)[C@@]23CC1C(O)[C@@H](OC(C)=O)[C@@H]2C1(C)C(OC(C)=O)C[C@@H](OC(C)=O)C(C)(C)[C@@H]1C[C@H]3OC(C)=O (stereo not given in full) | > 200 µM | 0.851 µM |  |
| COC1OC(CO)C(O)C1N (stereo not given) |  |  | inactive |
| O=C1CSC(c2ccccc2O)N1c1ccc(-c2ccc(-n3c(-c4ccccc4)nc4ccccc4c3=O)cc2)cc1 (stereo not given) | > 200 µM | 12 µM |  |
| O=C(CC1(O)C(=O)Nc2c(Cl)ccc(Cl)c21)c1ccco1 (stereo not given) | > 398 µM | 77.6 µM |  |
| Cn1ccc2[nH]c(=O)[nH]c(=S)c21 | > 200 µM | > 200 µM |  |
| CC(C)COC(=O)Sc1ccccc1C(=O)NC(C)C(N)=O (stereo not given) | 1.1 µM | 115 µM |  |
| Cn1c(O)c(N=NC(=S)NC(=O)C23CC4CC(CC(C4)C2)C3)c2ccccc21 |  |  | inactive |
| O=C(NCCCN1CCCCCC1)C(c1ccccc1)C1CCCCC1 (stereo not given) | > 200 µM | 36.3 µM |  |
| CC(C)c1ccc(/C=C2\CSC/C(=C\c3ccc(C(C)C)cc3)C2=O)cc1 | > 200 µM | 123 µM |  |
| CCCCCCCCCCc1c2nc(c(CCCCCCCCCC)c3ccc([nH]3)c(CCCCCCCCCC)c3ccc([nH]3)c(CCCCCCCCCC)c3nc1C=C3)C=C2 | > 100 µM | > 100 µM |  |
| COC1=CC(=O)O/C1=C(\OC)C1OC1c1ccccc1 (stereo not given) | 5.37 µM | 97.7 µM |  |
| O=C1CCCCC/C=C2/CC[C@H](Sc3ccccc3)[C@@H]12 | > 200 µM | 53.7 µM |  |
| COc1ccc2[nH]cc(CN3CCC(CO)(c4ccccc4)CC3)c2c1 | > 200 µM | 91.2 µM |  |
| C/C=C/CC1(CC)Oc2cccnc2-n2cccc2C1=O (stereo not given) | > 200 µM | > 100 µM |  |
| CN(C)c1ccc(N=C2C=CC(=O)c3ccccc32)cc1 | > 20 µM | 1.23 µM |  |

| Structure (SMILES) | EC50 | IC50 | outcome |
| --- | --- | --- | --- |
| COc1cc2c(c(O)c1OC)C(O)C1CCC(=O)N1C2c1ccc2c(c1)OCO2 (stereo not given) | > 200 µM | 135 µM |  |
| CCOc1cc2c(cc1C(C)c1ccc(OC)cc1)OCO2 (stereo not given) | > 33.1 µM | 0.214 µM |  |
| C(/Cc1ccc2c(c1)OCO2)=N\NC1=NCCCN1 | > 200 µM | 38.9 µM |  |
| CCOC(=O)C(=O)Nc1c(CC)cccc1C(C)C | > 355 µM | > 355 µM |  |
| O=c1cc(NNc2ccccc2)[nH]c(=O)[nH]1 | > 200 µM | 1.02 µM |  |
| CS(=O)(=O)N/N=C/CN1C(=O)c2ccccc2C1=O | > 891 µM | > 891 µM |  |
| O=c1c2cc(Br)ccc2ncn1COCc1ccccc1 | > 200 µM | 89.1 µM |  |
| NCCN.O=C([O-])CC(O)C(=O)[O-].[Pt+4] (stereo not given) | > 200 µM | 12 µM |  |
| O=S1(=O)OCCOS(=O)(=O)C1(Cl)Cl | > 50.1 µM | > 50.1 µM |  |
| Cc1ccc(S(=O)(=O)c2ccsc2NC(=O)C(F)(F)F)cc1 | > 200 µM | 46.8 µM |  |
| O=C(n1c(=O)n(-c2ccc([N+](=O)[O-])cc2)c(=O)n1C(=O)C(Cl)(Cl)Cl)C(Cl)(Cl)Cl | > 200 µM | > 200 µM |  |
| COc1ccc(N(C)S(=O)(=O)c2ccccc2)cc1 | > 200 µM | 123 µM |  |
| COC(=O)[C@]1(C)CCC[C@@]2(C)C1CC[C@]13C=C(C(C)C)[C@H](CC21)CC3(Cl)C#N (stereo not given in full) | > 200 µM | 37.2 µM |  |
| CC12CC[C@H](O)C(C)(C)[C@H]1CC[C@](C)(O)C2COc1ccc2ccc(=O)oc2c1 (stereo not given in full) | > 324 µM | 288 µM |  |
| Nc1cc(N2CCOCC2)nc(=O)n1-c1ccc(Cl)cc1 | > 200 µM | > 200 µM |  |
| CCCCCCCCCCCCCCCC=C(c1cc(Cl)c(OC)c(C(=O)O)c1)c1cc(Cl)c(OC)c(C(=O)O)c1 | > 1200 µM | 26.3 µM and 52.5 µM |  |
| Cc1cccc(C(=O)O)c1C(=O)c1cccc2ccccc12 |  |  | inactive |
| CC1CN1SSN1CC1C (stereo not given) | > 200 µM | 182 µM |  |
| O=S(=O)(c1ccccc1)N1CCCC(c2ccccc2)CC1 (stereo not given) |  |  | inactive |
| O=C1OC2C(O)COC23OC(O)CCC13O (stereo not given) | > 200 µM | > 200 µM |  |
| NS(=O)(=O)c1ccc(NNc2c3ccccc3nc3c(C(=O)Nc4ccc(S(N)(=O)=O)cc4)cccc23)cc1 | > 200 µM | 10.5 µM |  |
| O=C1NC(N2CCOCC2)=N/C1=C\c1ccccc1 | > 200 µM | > 200 µM |  |
| O=S(=O)(N=S(c1ccc(Cl)cc1)c1ccc(Cl)cc1)c1ccccc1 | > 24.5 µM | > 24.5 µM |  |

| Structure (SMILES) | EC50 | IC50 | outcome |
| --- | --- | --- | --- |
| CCOC(=O)/C(=C\c1cccs1)P(=O)(OCC)OCC | > 794 µM | 41.7 µM |  |
| Cc1ccc(S(=O)(=O)Nn2c(S)c(C#N)c(-c3ccc(Cl)cc3)c(C#N)c2=O)cc1 | > 200 µM | 12 µM |  |
| C=C1C(=O)OC2CC(C)C3CC(OC)OC(OC)C3(C)CC12 (stereo not given) | > 589 µM | 3.72 µM |  |
| O=[N+]([O-])c1ccc(OP(=O)(Oc2ccc([N+](=O)[O-])cc2)OP(=O)(Oc2ccc([N+](=O)[O-])cc2)Oc2ccc([N+](=O)[O-])cc2)cc1 | > 200 µM | 50.1 µM |  |
| COc1cc(C(=O)/C=C/c2ccc(OCCSCCCCCCCCCCSCCOc3ccc(/C=C/C(=O)c4cc(OC)c(OC)c(OC)c4)cc3)cc2)cc(OC)c1OC | > 151 µM | > 151 µM |  |
| CC1(C)C2CCC13CS(=O)(=O)N1O[C@]13C(=O)O2 (stereo not given in full) | > 195 µM | > 195 µM |  |
| CC1=N/C(=C\c2ccc([N+](=O)[O-])cc2)C(=O)O1 | > 155 µM | > 155 µM |  |
| [N-]=[N+]=NC1CC(n2cc(CO)c(=O)[nH]c2=O)OC1CO (stereo not given) | > 437 µM | 240 µM |  |
| COc1ccc(SCc2ccc(C(=O)O)cc2)cc1 | > 26.3 µM | > 26.3 µM |  |
| O=C1/C(=C/c2ccccc2)CCCc2ccccc21 | > 200 µM | 21.4 µM |  |
| N#CCC(=O)NN=C1CCCCC1 | > 200 µM | > 200 µM |  |
| S=C1NC2=C(CSC/C2=C\c2ccccc2)C(c2ccccc2)N1 (stereo not given) | > 200 µM | 37.2 µM |  |
| CCCC(=O)NC1CCc2cc(OC)c(OC)c(OC)c2-c2ccc(OC)c(=O)cc21 (stereo not given) | > 2 µM | 0.0126 µM |  |
| COC1=CC(=O)C2C(C1=O)[C@@H]1c3ccccc3C[C@H]21 (stereo not given in full) | > 195 µM | > 100 µM |  |
| O=c1c(O)c(-c2ccc(O)c(O)c2)oc2cc(O)ccc12 | > 550 µM | 55 µM and 25.7 µM |  |
| CC1CN1c1c(C(=O)/C=C/c2ccccc2)c(-c2ccccc2)nn(C)c1=O (stereo not given) | > 67.6 µM | 12.6 µM |  |
| CC(C)COC(=O)c1ccc(N=Cc2ccc(C=Nc3ccc(C(=O)OCC(C)C)cc3)cc2)cc1 | > 10.7 µM | > 10.7 µM |  |
| COc1cc2c(cc1-c1coc3cc(OCC=C(C)C)ccc3c1=O)OCO2 | > 200 µM | 7.08 µM |  |
| Cc1cccc(-c2nnc3s/c(=C\c4ccc5c(c4)OCO5)c(=O)n23)c1 | > 27.5 µM | > 27.5 µM |  |
| COc1cccc(C2NC(=O)c3c(n[nH]c3N)S2)c1O (stereo not given) | > 200 µM | > 200 µM |  |
